We go through five molecules from patent publication US8653257B2, “Dibenzothiazepine derivatives and uses thereof—424” (Astrazeneca AB, priority 2008, dated 2014).

The target of one experiment is dopamine D2s receptor (Homo sapiens (Human), UniProt P14416). Description: D2 antagonist GTPγS functional assay. In kind it is biochemical. Particulars: antagonist mode. The procedure:
In vitro experimental assays can generally be carried out as described herein. Briefly, CHO-K1 cells stably transfected with the dopamine D2s receptor can be used in the experiments and maintained in Ham's F12 culture medium supplemented with 2 mM L-glutamine, 10% FBS, and 500 μg/ml Hygromycin.
GTPgS assay can be performed substantially as described by Lazareno, Methods in Molecular Biology, 1999, 106, 231-245. Antagonist activity of compounds can be determined by the ability of test compounds to block dopamine-stimulated [^35S]-GTPγS binding to cell membranes from D2s stably-transfected CHO cells.

Experiment [1] has as its system D-Amphetamine-induced Hyperlocomotor Activity. Description: D-Amphetamine-induced hyperlocomotor activity (LMA) in habituated rat model. Conditions: 30 mg/kg and 60 mg/kg (sc). It counts as in vivo, male Long Evans rats. As to the method: Studies in vivo can be used to determine the antipsychotic effect and are generally carried out as follows. Briefly, D-Amphetamine-induced Hyperlocomotor Activity (LMA) in a Habituated Rat Model can be assessed in male Long Evans rats using a paradigm that includes a habituation phase followed by administration of 1 mg/kg D-amphetamine. Animals can be allowed to acclimatize to the testing room for 1 hour before being weighed and placed into activity chambers. Thirty minutes after LMA measurement is begun, animals can be briefly removed, dosed via the sub-cutaneous route (s.c.) with vehicle or test drug at different doses and returned to the chambers. After a further 30 minutes, animals can again be removed and dosed with vehicle or D-amphetamine at 1 mg/kg (s.c.). After returning the animals to the activity chambers, LMA can be assessed for a further 60 minutes. Haloperidol (0.1 mg/kg dissolved in H2O) can be administered 15 minutes prior to D-amphetamine via the s.c. route. Statistical analysis can be made of total distance traveled after D-amphetamine administration using ANOVA and Tukey's post hoc analysis where appropriate. All values can be expressed as Mean and SD.

Experiment [2] concerns Conditioned Avoidance Responding. Description: Conditioned avoidance responding (CAR) assay. In kind it is in vivo, Male Long-Evans rats. Particulars: 30 mg/kg and 60 mg/kg (sc), rat. The procedure:
Male Long-Evans rats can be trained to traverse to the opposite side of a standard shuttle cage following presentation of an auditory and visual stimulus to avoid delivery of electric shock to the floor of the cage. Daily sessions can consist of up to 80 trials. If a shock is delivered, animals have the opportunity to escape the shock by traversing to the opposite side of the cage. Drug can be administered (via s.c. or p.o. route) 60 minutes prior to testing and the percentage of trials in which shock is avoided and escaped can be recorded.

For another experiment, the target named is H1 receptor (Homo sapiens (Human), UniProt P35367). The experiment can be described thus: H1 receptor binding. Also noted: species or system Hu. Conditions: one average result. The source says:
The H1 receptor binding method can be carried out in accordance with De Backer et al., Biochem. Biophys. Res. Commun., 1993, 197(3), 1601.

Chain of dopamine D2s receptor (P14416 other isoform, or with tags, fused parts or gaps): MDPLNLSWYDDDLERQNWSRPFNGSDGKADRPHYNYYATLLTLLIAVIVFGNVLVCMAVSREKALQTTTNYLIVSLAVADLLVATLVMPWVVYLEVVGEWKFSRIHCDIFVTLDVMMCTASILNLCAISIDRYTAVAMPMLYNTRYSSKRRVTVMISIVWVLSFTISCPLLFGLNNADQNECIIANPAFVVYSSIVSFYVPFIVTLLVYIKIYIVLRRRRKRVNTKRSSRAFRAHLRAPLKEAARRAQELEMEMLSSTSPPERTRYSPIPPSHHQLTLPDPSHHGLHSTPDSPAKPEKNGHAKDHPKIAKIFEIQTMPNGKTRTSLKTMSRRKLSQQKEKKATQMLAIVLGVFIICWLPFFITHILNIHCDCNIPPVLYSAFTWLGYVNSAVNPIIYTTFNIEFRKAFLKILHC
Chain of H1 receptor (P35367 whole entry): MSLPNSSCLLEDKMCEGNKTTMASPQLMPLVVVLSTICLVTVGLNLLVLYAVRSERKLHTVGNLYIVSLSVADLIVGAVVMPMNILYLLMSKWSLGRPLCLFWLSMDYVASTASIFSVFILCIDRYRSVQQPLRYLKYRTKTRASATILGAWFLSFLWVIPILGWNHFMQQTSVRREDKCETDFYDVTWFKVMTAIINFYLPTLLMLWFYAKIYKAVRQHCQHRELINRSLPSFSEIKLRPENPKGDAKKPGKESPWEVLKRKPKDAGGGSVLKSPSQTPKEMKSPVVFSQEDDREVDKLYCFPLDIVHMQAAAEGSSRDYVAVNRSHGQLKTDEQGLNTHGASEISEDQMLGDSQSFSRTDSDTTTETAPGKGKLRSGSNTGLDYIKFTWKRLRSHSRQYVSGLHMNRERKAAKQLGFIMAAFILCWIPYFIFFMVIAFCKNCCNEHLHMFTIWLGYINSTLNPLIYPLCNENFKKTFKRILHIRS

Consider `CN1CCN(C2=Nc3ccccc3Sc3ccc(Cl)cc32)CC1` [2-Chloro-11-(4-methyl-piperazin-1-yl)-dibenzo[b,f][1,4]thiazepine], for which the “D2 Ant GTPγS Top Effect” value on dopamine D2s receptor was 100.
Take `Clc1ccc2c(c1)C(N1CCNCC1)=Nc1ccccc1S2` [2-Chloro-11-piperazin-1-yl-dibenzo[b,f][1,4]thiazepine]: the “D2 Ant GTPγS Top Effect” value on dopamine D2s receptor is given as 100.
On the same count and under the same terms, to `CN1CCN(C2=Nc3ccccc3Sc3ccc(F)cc32)CC1` [2-Fluoro-11-(4-methyl-piperazin-1-yl)-dibenzo[b,f][1,4]thiazepine] belongs 100; to `c1ccc2c(c1)N=C(N1CCNCC1)c1ccccc1S2` [11-Piperazin-1-yl-dibenzo[b,f][1,4]thiazepine], 89.
Usually Ki stands for a dissociation constant, usually derived from enzyme kinetics or from competition with a known ligand. Higher therefore signals weaker binding. Turning to `Fc1ccc2c(c1)C(N1CCNCC1)=Nc1ccccc1S2` [Example 1, 2-fluoro-11-(piperazin-1-yl)dibenzo[b,f][1,4]thiazepine], the “D2 Ant GTPγS Top Effect” value on dopamine D2s receptor came to 97. Moreover, the “activity in D-amphetamine-induced hyperlocomotor activity” value in experiment [1] is “showed activity”. In addition, in experiment [2], the “activity in conditioned avoidance responding” value is reported as “showed activity”. At H1 receptor, this molecule returned a Ki of roughly 7.1 nM.
